This is an account of results in ChEMBL document CHEMBL1122855, “Antimalarial agents. 1. alpha-Santonin-derived cyclic peroxide as potential antimalarial agent” (1985).

Values after ≈ are worked out from the molar mass of the structure shown.

The test system of assay [1] is Mus musculus. Kind of assay: In vitro antimalarial activity against chloroquine-resistant (Smith) isolates of Plasmodium falciparum at dose 160 mg/kg in mice (Mus musculus). Format: functional.
Assay [2] concerns Mus musculus. As to the kind of experiment: In vivo toxicity against chloroquine-resistant (Smith) isolates of Plasmodium berghei in mice (Mus musculus). Format: functional.

As for `CC1=C[C@H]2C[C@]3(C)CC[C@H]4[C@H](C)C(=O)O[C@@H]4C13OO2` (single isomer, unassigned), the ED50 with Mus musculus [1] amounted to 0.72859 µg/mL (≈ 2.76 µM). The compound also gave a Toxicity with Mus musculus [2] of 640 mg/kg. On to `C[C@@H]1CC[C@H]2[C@@H](C)C(=O)O[C@@H]3O[C@@]4(C)CC[C@@H]1[C@]32OO4` [ARTEMISININ], for which, in the assay with Mus musculus [1], the ED50 is <0.0034 µg/mL.
